Data from patent US10780074B2, “Compounds and uses thereof” (Sunovion Pharmaceuticals Inc., priority 2017, dated 2020).
Structures can show the parent of a compound that is named as a salt.

System: behaviors of compound-treated mice
Test: Neuropharmacological Assay (SmartCube)
Assay type: in vivo
Conditions: for minimal effective dose: Mus musculus, ip, 0.25 h, dose having 50% or more total activity in SmartCube, i.p., read-out: MED (minimal effective dose); for AD: ADHD (probability that activity matches class) / AG: analgesic (probability that activity matches class) / AX: anxiolytic (probability that activity matches class) / CE: cognitive enhancer (probability that activity matches class) / DP: anti-depressant (probability that activity matches class) / MS: mood stabilizer (probability that activity matches class) / PS: anti-psychotic (probability that activity matches class) / SD: sedative hypnotic (probability that activity matches class) / UN: uncharacterized CNS activity (probability that activity matches class): i.p. 15 min before behavioral test, most efficacious dose(s) of 3 doses
Method in brief: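 Behavioral signatures were captured automatically by video, and each drug class received a probability for the best of three i.p. doses given 15 min pre-test (vehicle: Pharmasolve/PEG/propylene glycol). Potency is given as MED, the lowest mpk dose (typically 0.3–30) reaching 50% or more total activity.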

Structure (SMILES)	minimal effective dose [mg/kg]	AD: ADHD (probability that activity matches class)	AG: analgesic (probability that activity matches class)	AX: anxiolytic (probability that activity matches class)	CE: cognitive enhancer (probability that activity matches class)	DP: anti-depressant (probability that activity matches class)	MS: mood stabilizer (probability that activity matches class)	PS: anti-psychotic (probability that activity matches class)	SD: sedative hypnotic (probability that activity matches class)	UN: uncharacterized CNS activity (probability that activity matches class)
NC[C@@H]1OCCc2c(-c3c[nH]cn3)cccc21 (single isomer, unassigned) [Compound 112, hydrochloride salt]	10 to 30	+ (LOQ ≤ + <5%)	+ (LOQ ≤ + <5%)	++ (5% ≤ ++ <25%)	+ (LOQ ≤ + <5%)	++ (5% ≤ ++ <25%)	+ (LOQ ≤ + <5%)	+ (LOQ ≤ + <5%)	+ (LOQ ≤ + <5%)	+ (LOQ ≤ + <5%)
NC[C@H]1OCCc2c(-c3c[nH]cn3)cccc21 (single isomer, unassigned) [Compound 113, hydrochloride salt]	3 to 10	+ (LOQ ≤ + <5%)	++ (5% ≤ ++ <25%)	++ (5% ≤ ++ <25%)	+ (LOQ ≤ + <5%)	++ (5% ≤ ++ <25%)	+ (LOQ ≤ + <5%)	+++ (25% ≤ +++ <50%)	+ (LOQ ≤ + <5%)	+++ (25% ≤ +++ <50%)
CNC[C@@H]1OCCc2c(-c3c[nH]cn3)cccc21 (single isomer, unassigned) [Compound 114, hydrochloride salt]	10 to 30	+ (LOQ ≤ + <5%)	+ (LOQ ≤ + <5%)	++ (5% ≤ ++ <25%)	+ (LOQ ≤ + <5%)	+ (LOQ ≤ + <5%)	+ (LOQ ≤ + <5%)	+ (LOQ ≤ + <5%)	+ (LOQ ≤ + <5%)	+ (LOQ ≤ + <5%)
CNC[C@H]1OCCc2c(-c3c[nH]cn3)cccc21 (single isomer, unassigned) [Compound 115, hydrochloride salt]	10 to 30	+ (LOQ ≤ + <5%)	+ (LOQ ≤ + <5%)	++ (5% ≤ ++ <25%)	+ (LOQ ≤ + <5%)	+ (LOQ ≤ + <5%)	+ (LOQ ≤ + <5%)	+ (LOQ ≤ + <5%)	+ (LOQ ≤ + <5%)	+ (LOQ ≤ + <5%)
CNC[C@@H]1OCCc2c(-c3ccnc(C)c3)cccc21 (single isomer, unassigned) [Compound 120, hydrochloride salt]	10 to 30	+ (LOQ ≤ + <5%)	+ (LOQ ≤ + <5%)	++ (5% ≤ ++ <25%)	+ (LOQ ≤ + <5%)	++ (5% ≤ ++ <25%)	+ (LOQ ≤ + <5%)	+ (LOQ ≤ + <5%)	+ (LOQ ≤ + <5%)	+ (LOQ ≤ + <5%)
CNC[C@H]1OCCc2c(-c3ccnc(C)c3)cccc21 (single isomer, unassigned) [Compound 121, hydrochloride salt]	≤ 3	++ (5% ≤ ++ <25%)	+ (LOQ ≤ + <5%)	++ (5% ≤ ++ <25%)	+ (LOQ ≤ + <5%)	++++ (50% ≤ ++++)	+ (LOQ ≤ + <5%)	+ (LOQ ≤ + <5%)	++ (5% ≤ ++ <25%)	+ (LOQ ≤ + <5%)
Cc1cc(-c2cccc3c2CCO[C@H]3CN)ccn1 (single isomer, unassigned) [Compound 122, hydrochloride salt]	10 to 30	+ (LOQ ≤ + <5%)	+ (LOQ ≤ + <5%)	++ (5% ≤ ++ <25%)	+ (LOQ ≤ + <5%)	+ (LOQ ≤ + <5%)	+ (LOQ ≤ + <5%)	+ (LOQ ≤ + <5%)	+ (LOQ ≤ + <5%)	+ (LOQ ≤ + <5%)
Cc1cc(-c2cccc3c2CCO[C@@H]3CN)ccn1 (single isomer, unassigned) [Compound 123, hydrochloride salt]	≤ 3	++ (5% ≤ ++ <25%)	+ (LOQ ≤ + <5%)	++ (5% ≤ ++ <25%)	+ (LOQ ≤ + <5%)	++++ (50% ≤ ++++)	+ (LOQ ≤ + <5%)	+ (LOQ ≤ + <5%)	+ (LOQ ≤ + <5%)	+ (LOQ ≤ + <5%)
CNC[C@@H]1OCCc2c(-c3ccccc3)cccc21 (single isomer, unassigned) [Compound 128, hydrochloride salt]	10 to 30	+ (LOQ ≤ + <5%)	+ (LOQ ≤ + <5%)	+ (LOQ ≤ + <5%)	+ (LOQ ≤ + <5%)	+ (LOQ ≤ + <5%)	+ (LOQ ≤ + <5%)	+ (LOQ ≤ + <5%)	+ (LOQ ≤ + <5%)	+ (LOQ ≤ + <5%)
CNC[C@H]1OCCc2c(-c3ccccc3)cccc21 (single isomer, unassigned) [Compound 129, hydrochloride salt]	3 to 10	+ (LOQ ≤ + <5%)	+ (LOQ ≤ + <5%)	+ (LOQ ≤ + <5%)	++ (5% ≤ ++ <25%)	++++ (50% ≤ ++++)	+ (LOQ ≤ + <5%)	+ (LOQ ≤ + <5%)	++ (5% ≤ ++ <25%)	+ (LOQ ≤ + <5%)
NC[C@@H]1OCCc2c(-c3ccccc3)cccc21 (single isomer, unassigned) [Compound 130, hydrochloride salt]	10 to 30	+ (LOQ ≤ + <5%)	+ (LOQ ≤ + <5%)	++ (5% ≤ ++ <25%)	+ (LOQ ≤ + <5%)	++ (5% ≤ ++ <25%)	+ (LOQ ≤ + <5%)	+ (LOQ ≤ + <5%)	+ (LOQ ≤ + <5%)	+ (LOQ ≤ + <5%)
